Like-named read-outs stand apart in the source and are kept apart here.
Experiments:
AXL [1] = target: T1, AXL (Homo sapiens, UniProt P30530); experiment: Inhibition of purified recombinant AXL kinase; type: biochemical
T1 sequence (P30530 26-894): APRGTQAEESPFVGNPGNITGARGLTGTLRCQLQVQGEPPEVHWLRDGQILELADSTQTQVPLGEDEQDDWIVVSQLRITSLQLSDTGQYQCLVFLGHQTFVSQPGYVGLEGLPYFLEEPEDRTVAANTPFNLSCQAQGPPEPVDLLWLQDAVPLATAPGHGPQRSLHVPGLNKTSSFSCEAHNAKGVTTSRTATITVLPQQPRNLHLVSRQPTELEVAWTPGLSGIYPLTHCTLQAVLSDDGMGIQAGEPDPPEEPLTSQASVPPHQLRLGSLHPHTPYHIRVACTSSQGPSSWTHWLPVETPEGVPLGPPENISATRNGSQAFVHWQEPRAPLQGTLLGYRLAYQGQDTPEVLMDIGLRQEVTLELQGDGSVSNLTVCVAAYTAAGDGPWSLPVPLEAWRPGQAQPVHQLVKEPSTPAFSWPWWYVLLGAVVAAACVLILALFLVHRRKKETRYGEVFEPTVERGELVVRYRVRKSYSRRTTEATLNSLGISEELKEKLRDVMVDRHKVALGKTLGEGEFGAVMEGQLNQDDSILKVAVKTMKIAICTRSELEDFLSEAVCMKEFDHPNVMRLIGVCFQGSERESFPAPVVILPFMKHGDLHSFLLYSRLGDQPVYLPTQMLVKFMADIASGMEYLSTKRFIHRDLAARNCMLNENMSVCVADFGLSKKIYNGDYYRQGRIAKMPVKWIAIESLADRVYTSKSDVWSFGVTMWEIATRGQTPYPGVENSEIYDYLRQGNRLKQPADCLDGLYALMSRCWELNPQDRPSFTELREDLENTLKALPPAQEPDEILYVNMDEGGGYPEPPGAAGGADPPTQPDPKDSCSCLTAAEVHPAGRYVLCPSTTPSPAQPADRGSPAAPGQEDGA
Description: (§1) Purified recombinant AXL kinase was used to screen a library of structures with appropriate drug-like scaffolds to identify potential inhibitors. Hits from the screen were confirmed and r analyzed by selection criteria including Lipinski rules. One pyrrolopyrimidine-based compound was selected for structure-activity relationship efforts. Optimization of this scaffold and subsequent evaluation led to the generation of compound SG1-7079 as the lead candidate inhibitor (FIG. 10). […] SGI-7079 was screened against a panel of protein kinases to determine both selectivity and biochemical potency.

Flt1 = Flt1 (Homo sapiens, UniProt P17948); experiment: Protein kinase panel; type: biochemical
Description: as §1

Flt3 = target: T2, Flt3 (Homo sapiens, UniProt P36888); experiment: Protein kinase panel; type: biochemical
T2 sequence (P36888 27-993): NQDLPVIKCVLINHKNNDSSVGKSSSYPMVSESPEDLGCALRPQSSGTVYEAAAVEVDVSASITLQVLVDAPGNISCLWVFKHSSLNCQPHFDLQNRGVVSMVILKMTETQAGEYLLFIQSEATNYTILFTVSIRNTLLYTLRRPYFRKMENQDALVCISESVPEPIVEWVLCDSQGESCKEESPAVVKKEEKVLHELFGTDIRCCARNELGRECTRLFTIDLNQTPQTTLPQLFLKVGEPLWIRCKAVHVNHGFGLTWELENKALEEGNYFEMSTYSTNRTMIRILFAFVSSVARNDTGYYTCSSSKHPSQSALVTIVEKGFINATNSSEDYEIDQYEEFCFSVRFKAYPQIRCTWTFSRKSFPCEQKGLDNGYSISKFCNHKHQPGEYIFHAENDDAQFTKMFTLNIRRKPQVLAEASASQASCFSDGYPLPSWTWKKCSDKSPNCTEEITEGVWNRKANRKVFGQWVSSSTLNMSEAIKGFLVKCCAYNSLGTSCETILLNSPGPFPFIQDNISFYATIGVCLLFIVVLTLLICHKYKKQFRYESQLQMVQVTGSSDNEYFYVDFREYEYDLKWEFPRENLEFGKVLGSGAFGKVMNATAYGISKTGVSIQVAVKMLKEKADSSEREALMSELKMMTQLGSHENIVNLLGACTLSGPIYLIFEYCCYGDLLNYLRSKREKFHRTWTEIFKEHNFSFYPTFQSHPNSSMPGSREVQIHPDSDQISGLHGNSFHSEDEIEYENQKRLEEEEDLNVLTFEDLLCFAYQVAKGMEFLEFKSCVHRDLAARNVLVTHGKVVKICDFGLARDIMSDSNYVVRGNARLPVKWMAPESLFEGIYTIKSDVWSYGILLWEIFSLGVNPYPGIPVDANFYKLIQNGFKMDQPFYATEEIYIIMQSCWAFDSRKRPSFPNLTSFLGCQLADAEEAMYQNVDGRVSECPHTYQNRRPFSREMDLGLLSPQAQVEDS
Description: as §1

PDGFRβ = PDGFRβ (Homo sapiens, UniProt P09619); experiment: Protein kinase panel; type: biochemical
Description: as §1

Ret = Ret (Homo sapiens, UniProt P07949); experiment: Protein kinase panel; type: biochemical
Description: as §1

TrkA = TrkA (Homo sapiens, UniProt P04629); experiment: Protein kinase panel; type: biochemical
Description: as §1

TrkB = TrkB (Homo sapiens, UniProt Q16620); experiment: Protein kinase panel; type: biochemical
Description: as §1

NSCLC cell lines = experiment: Drug sensitivity (growth inhibition, MTS assay) of epithelial versus mesenchymal NSCLC cell lines; type: cell-based
Description: (§2) Average values were used for analysis as described. […] Chou T. C., et al., Quantitative Analysis of Dose-Effect Relationships: The Combined Effects of Multiple Drugs or Enzyme Inhibitors. Adv Enzyme Regul.
The EMT signature was derived in 54 DNA fingerprinted NSCLC cell lines profiled on Affymetrix U133A, B, and Plus2.0 arrays and tested on the Illumina WGv2 and WGv3 platforms and in an independent set of head and neck cancer lines (HNC). E-cadherin and other protein levels were quantified by reverse phase protein array and correlated with the first principal component of the EMT signature. IC50s were determined for NSCLC cell lines by MTS assay. Response to erlotinib was evaluated in patients treated in the BATTLE clinical trial using eight-week disease […] and progression free survival.

[2] = test system: Cells expressing high levels of Axl; experiment: Proliferation of six mesenchymal cell lines expressing high levels of Axl (summary); type: cell-based; conditions: single agent
Description: as §2

AXL [3] = target: T1, AXL; experiment: Gas6 ligand-induced tyrosine phosphorylation of human AXL expressed in HEK293T cells; type: cell-based; set-up: expressed in transfected cells; host or cells: HEK293T; conditions: read-out: EC50, inhibition of Gas6 ligand-induced tyrosine phosphorylation of AXL

Sequence of TrkB (Q16620 32-822, species assumed): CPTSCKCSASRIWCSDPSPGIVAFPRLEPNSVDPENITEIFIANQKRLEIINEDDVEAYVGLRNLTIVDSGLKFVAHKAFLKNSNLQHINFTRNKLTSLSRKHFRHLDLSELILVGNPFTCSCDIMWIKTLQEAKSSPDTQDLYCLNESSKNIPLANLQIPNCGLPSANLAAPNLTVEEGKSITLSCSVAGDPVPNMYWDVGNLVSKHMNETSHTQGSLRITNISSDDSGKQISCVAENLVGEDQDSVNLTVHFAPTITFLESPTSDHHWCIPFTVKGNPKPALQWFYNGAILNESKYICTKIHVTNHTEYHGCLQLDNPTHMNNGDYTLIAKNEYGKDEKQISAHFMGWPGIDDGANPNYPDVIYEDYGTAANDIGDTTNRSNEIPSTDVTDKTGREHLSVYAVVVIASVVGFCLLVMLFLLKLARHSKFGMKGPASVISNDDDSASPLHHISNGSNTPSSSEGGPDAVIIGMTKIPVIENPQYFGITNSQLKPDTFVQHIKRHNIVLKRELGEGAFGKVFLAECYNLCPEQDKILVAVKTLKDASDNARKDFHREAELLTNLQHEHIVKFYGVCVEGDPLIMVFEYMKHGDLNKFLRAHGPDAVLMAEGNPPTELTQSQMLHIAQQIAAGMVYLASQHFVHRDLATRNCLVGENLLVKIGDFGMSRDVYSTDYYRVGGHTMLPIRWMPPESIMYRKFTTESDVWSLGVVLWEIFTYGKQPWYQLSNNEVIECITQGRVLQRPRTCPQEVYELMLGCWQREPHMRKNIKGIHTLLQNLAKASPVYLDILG
Sequence of Flt1 (P17948 27-1338, species assumed): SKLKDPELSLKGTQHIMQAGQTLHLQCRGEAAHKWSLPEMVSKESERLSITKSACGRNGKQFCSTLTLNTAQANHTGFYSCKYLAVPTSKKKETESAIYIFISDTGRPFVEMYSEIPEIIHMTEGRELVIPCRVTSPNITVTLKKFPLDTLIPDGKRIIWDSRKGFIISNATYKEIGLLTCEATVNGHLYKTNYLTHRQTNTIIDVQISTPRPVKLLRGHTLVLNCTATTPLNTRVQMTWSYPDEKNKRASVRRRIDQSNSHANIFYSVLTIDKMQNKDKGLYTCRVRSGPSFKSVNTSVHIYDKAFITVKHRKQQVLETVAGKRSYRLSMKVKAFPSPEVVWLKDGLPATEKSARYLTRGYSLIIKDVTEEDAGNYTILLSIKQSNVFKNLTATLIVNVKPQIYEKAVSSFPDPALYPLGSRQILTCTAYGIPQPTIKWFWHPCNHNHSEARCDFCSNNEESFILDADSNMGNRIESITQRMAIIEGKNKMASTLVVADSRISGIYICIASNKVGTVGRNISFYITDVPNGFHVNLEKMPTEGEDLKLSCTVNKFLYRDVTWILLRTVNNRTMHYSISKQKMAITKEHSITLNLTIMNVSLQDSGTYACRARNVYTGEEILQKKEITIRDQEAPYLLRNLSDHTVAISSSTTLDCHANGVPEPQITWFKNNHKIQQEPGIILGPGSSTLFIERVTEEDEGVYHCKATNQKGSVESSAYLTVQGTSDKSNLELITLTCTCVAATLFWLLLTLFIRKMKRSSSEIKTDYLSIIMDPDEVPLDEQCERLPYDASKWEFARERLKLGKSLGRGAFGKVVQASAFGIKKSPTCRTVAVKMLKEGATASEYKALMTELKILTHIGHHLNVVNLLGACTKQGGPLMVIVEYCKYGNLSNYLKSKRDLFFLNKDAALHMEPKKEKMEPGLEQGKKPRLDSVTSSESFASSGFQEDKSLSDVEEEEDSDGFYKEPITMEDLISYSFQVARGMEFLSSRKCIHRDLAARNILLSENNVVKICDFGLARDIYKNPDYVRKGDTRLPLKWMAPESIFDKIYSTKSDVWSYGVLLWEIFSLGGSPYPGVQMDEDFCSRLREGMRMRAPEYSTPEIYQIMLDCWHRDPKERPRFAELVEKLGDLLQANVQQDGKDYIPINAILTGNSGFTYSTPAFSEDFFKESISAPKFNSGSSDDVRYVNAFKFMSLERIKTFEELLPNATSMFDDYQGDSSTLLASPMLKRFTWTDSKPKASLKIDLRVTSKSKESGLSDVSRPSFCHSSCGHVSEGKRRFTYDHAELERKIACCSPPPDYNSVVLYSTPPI
Sequence of PDGFRβ (P09619 33-1106, species assumed): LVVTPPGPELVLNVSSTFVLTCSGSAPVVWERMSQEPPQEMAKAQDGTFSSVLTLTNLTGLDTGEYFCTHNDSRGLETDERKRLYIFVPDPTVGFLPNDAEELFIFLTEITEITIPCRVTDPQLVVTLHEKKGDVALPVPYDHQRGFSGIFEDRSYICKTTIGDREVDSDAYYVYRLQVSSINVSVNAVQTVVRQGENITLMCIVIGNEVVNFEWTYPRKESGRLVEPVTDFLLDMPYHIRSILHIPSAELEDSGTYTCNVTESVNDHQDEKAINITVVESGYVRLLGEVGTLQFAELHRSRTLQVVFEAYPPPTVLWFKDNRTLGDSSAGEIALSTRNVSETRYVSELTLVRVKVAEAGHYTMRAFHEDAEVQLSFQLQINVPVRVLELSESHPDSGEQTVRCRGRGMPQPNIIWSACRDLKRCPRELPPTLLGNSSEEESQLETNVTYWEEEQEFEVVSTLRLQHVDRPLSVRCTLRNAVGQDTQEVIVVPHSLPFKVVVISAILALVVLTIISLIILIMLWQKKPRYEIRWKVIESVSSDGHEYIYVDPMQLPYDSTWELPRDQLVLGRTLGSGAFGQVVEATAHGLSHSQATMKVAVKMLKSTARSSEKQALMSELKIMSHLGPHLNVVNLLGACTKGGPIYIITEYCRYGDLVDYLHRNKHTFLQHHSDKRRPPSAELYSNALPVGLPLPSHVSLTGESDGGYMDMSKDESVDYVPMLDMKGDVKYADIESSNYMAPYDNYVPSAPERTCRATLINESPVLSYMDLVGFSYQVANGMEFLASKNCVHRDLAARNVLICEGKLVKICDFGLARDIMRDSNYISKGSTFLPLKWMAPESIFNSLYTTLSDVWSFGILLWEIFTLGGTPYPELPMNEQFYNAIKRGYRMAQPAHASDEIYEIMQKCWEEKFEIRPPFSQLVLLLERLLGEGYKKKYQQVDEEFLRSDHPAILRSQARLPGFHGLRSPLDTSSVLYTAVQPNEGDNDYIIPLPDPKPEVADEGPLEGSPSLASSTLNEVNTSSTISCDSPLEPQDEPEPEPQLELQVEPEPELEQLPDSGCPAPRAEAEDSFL
Sequence of Ret (P07949 29-1114, species assumed): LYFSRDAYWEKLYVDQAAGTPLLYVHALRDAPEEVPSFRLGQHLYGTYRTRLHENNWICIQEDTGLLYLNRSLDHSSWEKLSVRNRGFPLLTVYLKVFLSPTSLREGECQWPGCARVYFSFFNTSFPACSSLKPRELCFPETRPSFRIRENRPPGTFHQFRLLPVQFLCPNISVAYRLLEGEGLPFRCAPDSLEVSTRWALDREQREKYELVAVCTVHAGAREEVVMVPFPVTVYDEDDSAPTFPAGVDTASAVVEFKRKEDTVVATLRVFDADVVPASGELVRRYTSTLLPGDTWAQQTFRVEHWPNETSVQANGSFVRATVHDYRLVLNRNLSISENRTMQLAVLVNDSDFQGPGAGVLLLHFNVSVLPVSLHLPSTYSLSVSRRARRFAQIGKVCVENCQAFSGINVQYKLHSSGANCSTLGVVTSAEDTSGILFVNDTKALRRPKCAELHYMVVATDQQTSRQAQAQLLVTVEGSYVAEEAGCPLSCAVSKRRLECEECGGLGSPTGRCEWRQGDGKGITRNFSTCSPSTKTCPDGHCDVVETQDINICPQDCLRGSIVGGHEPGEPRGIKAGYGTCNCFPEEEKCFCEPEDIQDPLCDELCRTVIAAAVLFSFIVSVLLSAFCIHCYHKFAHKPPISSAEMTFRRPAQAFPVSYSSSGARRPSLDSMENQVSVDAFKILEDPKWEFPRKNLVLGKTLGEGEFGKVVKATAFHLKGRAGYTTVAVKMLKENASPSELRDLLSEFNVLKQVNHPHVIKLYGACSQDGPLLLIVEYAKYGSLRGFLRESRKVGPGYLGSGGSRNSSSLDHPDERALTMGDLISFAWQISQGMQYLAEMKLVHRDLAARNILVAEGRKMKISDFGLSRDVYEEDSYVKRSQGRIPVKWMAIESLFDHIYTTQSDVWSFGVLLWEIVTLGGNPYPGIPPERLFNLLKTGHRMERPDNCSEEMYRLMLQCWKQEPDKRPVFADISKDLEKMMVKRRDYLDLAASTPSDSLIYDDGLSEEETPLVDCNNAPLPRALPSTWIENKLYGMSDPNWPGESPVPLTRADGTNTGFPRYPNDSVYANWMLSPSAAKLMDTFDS
Sequence of TrkA (P04629 33-796, species assumed): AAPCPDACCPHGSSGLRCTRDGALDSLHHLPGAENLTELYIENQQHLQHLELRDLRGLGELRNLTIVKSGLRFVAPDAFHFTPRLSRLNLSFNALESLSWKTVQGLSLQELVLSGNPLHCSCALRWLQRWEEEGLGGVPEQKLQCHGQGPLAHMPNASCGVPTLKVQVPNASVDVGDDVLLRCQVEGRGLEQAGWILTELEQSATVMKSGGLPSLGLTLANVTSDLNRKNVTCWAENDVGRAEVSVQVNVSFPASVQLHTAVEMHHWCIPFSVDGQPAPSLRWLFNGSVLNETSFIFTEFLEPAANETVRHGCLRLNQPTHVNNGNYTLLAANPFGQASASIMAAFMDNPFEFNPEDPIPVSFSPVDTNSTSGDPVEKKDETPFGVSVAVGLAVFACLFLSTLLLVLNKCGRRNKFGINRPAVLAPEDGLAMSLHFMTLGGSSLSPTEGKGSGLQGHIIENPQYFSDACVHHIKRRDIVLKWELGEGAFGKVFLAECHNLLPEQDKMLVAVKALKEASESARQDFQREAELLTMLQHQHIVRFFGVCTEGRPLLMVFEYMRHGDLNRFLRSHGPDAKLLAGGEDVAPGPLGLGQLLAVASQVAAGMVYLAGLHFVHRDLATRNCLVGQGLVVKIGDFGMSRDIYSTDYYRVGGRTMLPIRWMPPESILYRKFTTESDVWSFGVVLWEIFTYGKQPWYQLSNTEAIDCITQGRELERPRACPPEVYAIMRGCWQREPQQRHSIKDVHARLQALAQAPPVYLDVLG

Cc1c[nH]c2nc(Nc3ccc(N4CCN(C)CC4)c(F)c3)nc(-c3cccc(CC#N)c3)c12 [SGI-7079]
Ki (AXL [1]): 5.7 nM
Inhibition of Flt1 (Flt1): potent, low nM inhibition
Inhibition of Flt3 (Flt3): potent, low nM inhibition
Inhibition of PDGFRβ (PDGFRβ): potent, low nM inhibition
Inhibition of Ret (Ret): potent, low nM inhibition
Inhibition of TrkA (TrkA): potent, low nM inhibition
Inhibition of TrkB (TrkB): potent, low nM inhibition
Sensitivity of mesenchymal cells (NSCLC cell lines; SGI-7079 versus erlotinib, p<0.001 by Wilcoxon test): relatively sensitive
Fold more sensitive, mesenchymal versus epithelial cells (NSCLC cell lines; p-value 0.17, not statistically significant): 1.3 fold
IC50 ([2]; read-out: IC50 range across cell lines): 740 to 4290 nM
IC50 ([2]; read-out: Mean IC50 across cell lines): 1300 nM
EC50 (AXL [3]): 100 nM

— US20140155397A1, “EMT SIGNATURES AND PREDICTIVE MARKERS AND METHOD OF USING THE SAME” (Board of Regents, priority 2011, published 2014)
